Experimental data reported in article PMC6327040, “A novel scaffold for EGFR inhibition: Introducing N-(3-(3-phenylureido)quinoxalin-6-yl) acrylamide derivatives” (Scientific Reports, 2019).

Experiments:
EGFRwt = EGFRwt (Homo sapiens, UniProt P00533); test: HTRF KinEASE-TK biochemical assay (TR-FRET), EGFRwt
Procedure: (§2) An artificial substrate peptide (TK-substrate from Cisbio) was phosphorylated by EGFR. After completion of the reaction (reaction times: 25 min for wild-type, 15 min for L858R, 20 min for T790M/L858R), the reaction was stopped by addition of a buffer containing EDTA as well as, an anti-phosphotyrosine antibody labeled with europium cryptate and streptavidin labeled with the fluorophore XL665. FRET between europium cryptate and XL665 was measured after an additional hour of incubation to quantify the phosphorylation of the substrate peptide. […] Kinase and inhibitor were preincubated for 30 min (EGFR-wt) and 1 h (EGFR-L858R and EGFR-L858R/T790M) before the reaction was started by addition of ATP and substrate peptide. An EnVision multimode plate reader (Perkin Elmer) was used to measure the fluorescence of the samples at 620 nm (Eu-labeled antibody) and 665 nm (XL665 labeled streptavidin) 50 μs after excitation at 320 nm. The quotient of both intensities for reactions made with eight different inhibitor concentrations was then analyzed using the Quattro Software Suite for IC50-determination. Each reaction was performed in duplicate, and at least three independent determinations of each IC50 were made.

[1] = system: patient-derived tumor cell panel; test: Patient-derived tumor cell panel screening (Oncotest); format: cell-based
Procedure: (§1) Based on this premise, the inhibitory activity of compounds 7a-m towards a patient-derived tumor cell panel[49] was evaluated, using a single screening concentration of 10 μM. […] In fact, it is worth mentioning that, although the data observed in a cellular assay have no direct correlation to EGFR enzymatic tests, this phenomenon is not unusual and is related to the nature of the assays itself. In enzymatic assays there is no influence of membrane permeability issues, while in cell viability assays compounds must penetrate the cell membrane and resist the cellular environment for long enough for the ligand-receptor interaction to occur and to trigger the biological activity.

UXF 1138L = test: PD tumor cell line growth inhibition; format: cell-based; conditions: Uterus, read-out: % inhibition (cellular growth inhibition related to negative control)
Procedure: as §1

MEXF 276L = test: PD tumor cell line growth inhibition; format: cell-based; conditions: Homo sapiens, MEXF276L, Melanoma, read-out: % inhibition (cellular growth inhibition related to negative control)
Procedure: as §1

LXFL 529L = test: PD tumor cell line growth inhibition; format: cell-based; conditions: Lung, EGFR overexpressed, read-out: % inhibition (cellular growth inhibition related to negative control)
Procedure: as §1

CXF SW620 = test: PD tumor cell line growth inhibition; format: cell-based; conditions: Homo sapiens, SW-620, Colon, read-out: % inhibition (cellular growth inhibition related to negative control)
Procedure: as §1

SXF1301L = test: PD tumor cell line growth inhibition; format: cell-based; conditions: Sarcoma, read-out: % inhibition (cellular growth inhibition related to negative control)
Procedure: as §1

LIXF 575L = test: PD tumor cell line growth inhibition; format: cell-based; conditions: Liver, read-out: % inhibition (cellular growth inhibition related to negative control)
Procedure: as §1

GXA MKN45 = test: PD tumor cell line growth inhibition; format: cell-based; conditions: Homo sapiens, MKN-45, Stomach, read-out: % inhibition (cellular growth inhibition related to negative control)
Procedure: as §1

LXFA NCI-H1975 = test: PD tumor cell line growth inhibition; format: cell-based; conditions: Homo sapiens, Lung, read-out: % inhibition (cellular growth inhibition related to negative control)
Procedure: as §1

MAXF 401NL = test: PD tumor cell line growth inhibition; format: cell-based; conditions: Breast, read-out: % inhibition (cellular growth inhibition related to negative control)
Procedure: as §1

BXF 1218L = test: PD tumor cell line growth inhibition; format: cell-based; conditions: Bladder, read-out: % inhibition (cellular growth inhibition related to negative control)
Procedure: as §1

LXFL H460 = test: PD tumor cell line growth inhibition; format: cell-based; conditions: Homo sapiens, NCI-H460, Lung, read-out: % inhibition (cellular growth inhibition related to negative control)
Procedure: as §1

BXF T24 = test: PD tumor cell line growth inhibition; format: cell-based; conditions: Bladder, read-out: % inhibition (cellular growth inhibition related to negative control)
Procedure: as §1

MAXF MDA231 = test: PD tumor cell line growth inhibition; format: cell-based; conditions: Homo sapiens, MDA-MB-231, Breast, read-out: % inhibition (cellular growth inhibition related to negative control)
Procedure: as §1

LXFA 629L = test: PD tumor cell line growth inhibition; format: cell-based; conditions: Lung, read-out: % inhibition (cellular growth inhibition related to negative control)
Procedure: as §1

MEXF 1737l = test: PD tumor cell line growth inhibition; format: cell-based; conditions: Melanoma, read-out: % inhibition (cellular growth inhibition related to negative control)
Procedure: as §1

PAXF 1657l = test: PD tumor cell line growth inhibition; format: cell-based; conditions: Pancreas, read-out: % inhibition (cellular growth inhibition related to negative control)
Procedure: as §1

CXF HCT116 = test: PD tumor cell line growth inhibition; format: cell-based; conditions: Homo sapiens, HCT-116, Colon, read-out: % inhibition (cellular growth inhibition related to negative control)
Procedure: as §1

RXF 486L = test: PD tumor cell line growth inhibition; format: cell-based; conditions: Kidney, read-out: % inhibition (cellular growth inhibition related to negative control)
Procedure: as §1

OVXF 899L = test: PD tumor cell line growth inhibition; format: cell-based; conditions: Ovary, read-out: % inhibition (cellular growth inhibition related to negative control)
Procedure: as §1

GXF 251L = test: PD tumor cell line growth inhibition; format: cell-based; conditions: Stomach, EGFRdel-exon19 expressed, read-out: % inhibition (cellular growth inhibition related to negative control)
Procedure: as §1

PAXF 546L = test: PD tumor cell line growth inhibition; format: cell-based; conditions: Pancreas, read-out: % inhibition (cellular growth inhibition related to negative control)
Procedure: as §1

PRXF DU145 = test: PD tumor cell line growth inhibition; format: cell-based; conditions: Homo sapiens, DU-145, Prostate, read-out: % inhibition (cellular growth inhibition related to negative control)
Procedure: as §1

CXF DIFI = test: PD tumor cell line growth inhibition; format: cell-based; conditions: Homo sapiens, Colon, EGFRdel-exon19 expressed, read-out: % inhibition (cellular growth inhibition related to negative control)
Procedure: as §1

LXFA PC9 = test: PD tumor cell line growth inhibition; format: cell-based; conditions: Lung, EGFRdel-exon19 expressed, read-out: % inhibition (cellular growth inhibition related to negative control)
Procedure: as §1

RXF 786-O = test: PD tumor cell line growth inhibition; format: cell-based; conditions: Homo sapiens, 786-0, Kidney, read-out: % inhibition (cellular growth inhibition related to negative control)
Procedure: as §1

MAXF MCF7 = test: PD tumor cell line growth inhibition; format: cell-based; conditions: Homo sapiens, Breast, read-out: % inhibition (cellular growth inhibition related to negative control)
Procedure: as §1

CNXF A172 = test: PD tumor cell line growth inhibition; format: cell-based; conditions: Homo sapiens, A 172, Glioblastoma, read-out: % inhibition (cellular growth inhibition related to negative control)
Procedure: as §1

MEXF 1539L = test: PD tumor cell line growth inhibition; format: cell-based; conditions: Melanoma, read-out: % inhibition (cellular growth inhibition related to negative control)
Procedure: as §1

CXF RKO = test: PD tumor cell line growth inhibition; format: cell-based; conditions: Colon, read-out: % inhibition (cellular growth inhibition related to negative control)
Procedure: as §1

CXF Colo205 = test: PD tumor cell line growth inhibition; format: cell-based; conditions: Homo sapiens, COLO 205, Colon, read-out: % inhibition (cellular growth inhibition related to negative control)
Procedure: as §1

EGFRL858R = EGFRL858R (Homo sapiens, UniProt P00533, L858R); test: HTRF KinEASE-TK biochemical assay (TR-FRET), EGFR-L858R
EGFRL858R, sequence (P00533 25-1210 L858R): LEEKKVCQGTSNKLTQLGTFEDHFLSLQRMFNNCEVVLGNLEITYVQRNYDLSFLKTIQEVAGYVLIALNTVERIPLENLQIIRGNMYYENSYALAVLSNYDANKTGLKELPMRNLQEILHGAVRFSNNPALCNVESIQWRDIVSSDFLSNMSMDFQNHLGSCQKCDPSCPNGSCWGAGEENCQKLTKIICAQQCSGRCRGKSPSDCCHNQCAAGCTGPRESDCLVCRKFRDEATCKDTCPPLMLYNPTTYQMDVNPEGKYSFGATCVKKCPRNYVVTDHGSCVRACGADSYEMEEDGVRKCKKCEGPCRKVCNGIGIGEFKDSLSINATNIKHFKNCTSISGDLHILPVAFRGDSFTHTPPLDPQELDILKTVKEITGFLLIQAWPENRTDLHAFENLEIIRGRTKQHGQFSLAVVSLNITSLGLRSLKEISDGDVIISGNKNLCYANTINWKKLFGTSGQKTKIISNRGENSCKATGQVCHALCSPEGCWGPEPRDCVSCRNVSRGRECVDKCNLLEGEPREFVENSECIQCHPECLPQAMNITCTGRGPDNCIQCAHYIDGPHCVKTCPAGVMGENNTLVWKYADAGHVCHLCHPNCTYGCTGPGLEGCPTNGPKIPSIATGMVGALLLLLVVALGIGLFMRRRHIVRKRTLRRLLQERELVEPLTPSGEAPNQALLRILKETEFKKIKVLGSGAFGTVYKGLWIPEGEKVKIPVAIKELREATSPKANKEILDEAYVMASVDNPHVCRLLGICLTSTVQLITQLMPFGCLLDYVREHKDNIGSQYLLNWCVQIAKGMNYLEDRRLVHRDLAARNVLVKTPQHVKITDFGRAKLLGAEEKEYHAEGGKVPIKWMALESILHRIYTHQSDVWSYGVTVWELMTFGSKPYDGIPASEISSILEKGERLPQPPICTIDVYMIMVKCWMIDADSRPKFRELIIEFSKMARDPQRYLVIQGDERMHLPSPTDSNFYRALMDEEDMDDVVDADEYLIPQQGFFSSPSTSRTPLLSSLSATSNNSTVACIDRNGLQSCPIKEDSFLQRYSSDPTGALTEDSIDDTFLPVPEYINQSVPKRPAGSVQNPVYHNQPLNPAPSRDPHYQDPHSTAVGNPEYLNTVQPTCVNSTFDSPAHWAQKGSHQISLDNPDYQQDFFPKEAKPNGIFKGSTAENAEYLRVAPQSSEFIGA
Procedure: as §2

EGFRL858R/T790M = EGFRL858R/T790M (Homo sapiens, UniProt P00533, L858R/T790M); test: HTRF KinEASE-TK biochemical assay (TR-FRET), EGFR-L858R/T790M
EGFRL858R/T790M, sequence (P00533 25-1210 T790M/L858R): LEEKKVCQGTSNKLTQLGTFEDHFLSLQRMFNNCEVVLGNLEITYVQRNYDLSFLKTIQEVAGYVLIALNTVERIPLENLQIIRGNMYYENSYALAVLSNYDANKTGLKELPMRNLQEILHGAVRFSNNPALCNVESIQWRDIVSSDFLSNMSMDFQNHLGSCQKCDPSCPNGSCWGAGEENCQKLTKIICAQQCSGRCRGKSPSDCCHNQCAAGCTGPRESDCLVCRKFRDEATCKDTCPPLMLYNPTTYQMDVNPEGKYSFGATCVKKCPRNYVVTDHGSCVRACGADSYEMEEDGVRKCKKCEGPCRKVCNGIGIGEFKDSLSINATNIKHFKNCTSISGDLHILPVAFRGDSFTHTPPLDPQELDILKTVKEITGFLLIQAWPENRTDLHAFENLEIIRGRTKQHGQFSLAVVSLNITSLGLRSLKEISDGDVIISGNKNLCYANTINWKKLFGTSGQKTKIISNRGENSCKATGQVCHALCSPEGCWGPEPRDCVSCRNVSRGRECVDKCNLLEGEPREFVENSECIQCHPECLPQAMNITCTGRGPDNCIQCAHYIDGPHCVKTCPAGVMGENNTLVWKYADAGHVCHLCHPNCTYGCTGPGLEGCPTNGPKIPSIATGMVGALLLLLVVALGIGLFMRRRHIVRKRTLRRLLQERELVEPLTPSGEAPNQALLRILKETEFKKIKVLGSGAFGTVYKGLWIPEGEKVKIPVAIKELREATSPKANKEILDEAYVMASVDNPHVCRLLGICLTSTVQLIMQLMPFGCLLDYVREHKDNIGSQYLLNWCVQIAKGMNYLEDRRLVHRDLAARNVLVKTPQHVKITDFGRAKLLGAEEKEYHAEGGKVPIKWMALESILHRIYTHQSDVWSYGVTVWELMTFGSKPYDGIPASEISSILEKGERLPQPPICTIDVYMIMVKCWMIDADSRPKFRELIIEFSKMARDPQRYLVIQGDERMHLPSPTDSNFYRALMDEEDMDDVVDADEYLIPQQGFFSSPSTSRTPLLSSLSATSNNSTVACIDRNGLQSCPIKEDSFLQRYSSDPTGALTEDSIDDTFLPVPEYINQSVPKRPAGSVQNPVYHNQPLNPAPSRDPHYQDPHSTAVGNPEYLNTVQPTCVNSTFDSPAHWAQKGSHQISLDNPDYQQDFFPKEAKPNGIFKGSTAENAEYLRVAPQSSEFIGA
Procedure: as §2

EGFRwt, sequence (P00533 25-1210): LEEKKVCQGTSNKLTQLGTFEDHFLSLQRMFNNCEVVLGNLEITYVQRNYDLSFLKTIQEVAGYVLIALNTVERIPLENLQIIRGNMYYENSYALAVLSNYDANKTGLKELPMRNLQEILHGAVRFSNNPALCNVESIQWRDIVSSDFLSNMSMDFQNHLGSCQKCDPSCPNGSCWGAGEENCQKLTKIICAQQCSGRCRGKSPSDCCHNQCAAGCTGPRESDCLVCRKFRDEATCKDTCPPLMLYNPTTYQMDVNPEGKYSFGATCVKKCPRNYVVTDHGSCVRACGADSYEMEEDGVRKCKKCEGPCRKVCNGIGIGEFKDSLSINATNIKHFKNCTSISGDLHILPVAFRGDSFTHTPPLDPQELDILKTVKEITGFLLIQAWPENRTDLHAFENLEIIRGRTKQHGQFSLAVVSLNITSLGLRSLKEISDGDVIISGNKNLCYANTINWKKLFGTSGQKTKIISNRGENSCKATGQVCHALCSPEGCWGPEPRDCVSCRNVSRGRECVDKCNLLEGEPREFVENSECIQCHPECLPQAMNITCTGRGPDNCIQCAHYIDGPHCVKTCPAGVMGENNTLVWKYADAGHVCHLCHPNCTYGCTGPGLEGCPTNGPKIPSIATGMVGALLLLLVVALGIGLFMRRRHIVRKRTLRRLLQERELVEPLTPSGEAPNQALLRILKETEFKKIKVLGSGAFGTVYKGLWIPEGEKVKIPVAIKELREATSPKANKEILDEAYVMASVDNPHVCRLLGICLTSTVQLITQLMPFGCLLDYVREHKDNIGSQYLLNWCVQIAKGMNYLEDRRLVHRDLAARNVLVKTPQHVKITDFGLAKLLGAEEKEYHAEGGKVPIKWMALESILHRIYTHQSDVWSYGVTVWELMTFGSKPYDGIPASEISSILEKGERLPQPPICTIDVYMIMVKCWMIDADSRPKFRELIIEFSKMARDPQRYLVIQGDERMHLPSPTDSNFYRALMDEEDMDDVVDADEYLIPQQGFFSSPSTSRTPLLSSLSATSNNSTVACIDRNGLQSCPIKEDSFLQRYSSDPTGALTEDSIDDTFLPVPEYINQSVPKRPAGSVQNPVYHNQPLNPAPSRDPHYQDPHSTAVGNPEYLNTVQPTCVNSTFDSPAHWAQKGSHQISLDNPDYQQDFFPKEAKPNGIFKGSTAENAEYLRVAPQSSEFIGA

For C=CC(=O)Nc1ccc2ncc(NC(=O)Nc3ccccc3)nc2c1 [Compound 7h, N-(3-(3-phenylureido)quinoxalin-6-yl)acrylamide], the IC50 (EGFRwt) was 25 ± 4 nM, the inhibition at 10 µM ([1]; 10 μM, GXF 251L, CXF DiFi, LXFA PC9, LXFL 529L and LXFA NCI-H1975 cell lines, read-out: growth inhibition effect) was 55 to 77% and the “tumor cell lines' growth inhibition / cytotoxic activity (in words)” value ([1]; single screening concentration of 10 μM) was “important cytotoxic activity”. The inhibition at 10 µM (UXF 1138L) was 91%, the inhibition at 10 µM (MEXF 276L) was 88% and the inhibition at 10 µM (LXFL 529L) was 74%. For the same molecule, the inhibition at 10 µM (CXF SW620) was 82%, the inhibition at 10 µM (SXF1301L) was 89% and the inhibition at 10 µM (LIXF 575L) was 40%. The inhibition at 10 µM (GXA MKN45) was 8%, the inhibition at 10 µM (LXFA NCI-H1975) was 68% and the inhibition at 10 µM (MAXF 401NL) was 72%. The inhibition at 10 µM (BXF 1218L) was 84%, the inhibition at 10 µM (LXFL H460) was 33% and the inhibition at 10 µM (BXF T24) was 76%. It also gave an inhibition at 10 µM (MAXF MDA231) of 67%, an inhibition at 10 µM (LXFA 629L) of 76% and an inhibition at 10 µM (MEXF 1737l) of 15%. The inhibition at 10 µM (PAXF 1657l) was 89%, the inhibition at 10 µM (CXF HCT116) was 92% and the inhibition at 10 µM (RXF 486L) was 86%. The inhibition at 10 µM (OVXF 899L) was 87%, the inhibition at 10 µM (GXF 251L) was 55% and the inhibition at 10 µM (PAXF 546L) was 58%. It also gave an inhibition at 10 µM (PRXF DU145) of 91%, an inhibition at 10 µM (CXF DIFI) of 77% and an inhibition at 10 µM (LXFA PC9) of 75%. The inhibition at 10 µM (RXF 786-O) was 80%, the inhibition at 10 µM (MAXF MCF7) was 76% and the inhibition at 10 µM (CNXF A172) was 86%. For the same molecule, the inhibition at 10 µM (MEXF 1539L) was 93%, the inhibition at 10 µM (CXF RKO) was 82% and the inhibition at 10 µM (CXF Colo205) was 56%. The IC50 (EGFRL858R) was 18 ± 3 nM, the IC50 (EGFRL858R/T790M) was 1680 ± 1510 nM and the “inhibitory activity on EGFRL858R/T790M (in words)” value (EGFRL858R/T790M; enzymatic in vitro determination) was “weak inhibition”.
